In the CheMixHub viscosity set:

Assay: xn = mol fraction of the nth substance listed

Cc1ccc(O)cc1 + CCCC(=O)O
viscosity [mPa·s], 101 kPa
Conditions | x2 = 0.1119 | x2 = 0.2208 | x2 = 0.327 | x2 = 0.4305 | x2 = 0.5313 | x2 = 0.6297 | x2 = 0.7257 | x2 = 0.8193 | x2 = 0.9107
298.15 K | 11.14 | 8.918 | 7.131 | 5.694 | 4.541 | 3.617 | 2.884 | 2.319 | 1.88
308.15 K | 6.522 | 5.57 | 4.738 | 4.049 | 3.417 | 2.851 | 2.364 | 1.922 | 1.517
318.15 K | 5.117 | 4.435 | 3.835 | 3.299 | 2.808 | 2.362 | 1.987 | 1.643 | 1.256

O=S1(=O)CCCC1 + NCCO
viscosity [mPa·s], 101 kPa
Conditions | x2 = 0.1 | x2 = 0.3369 | x2 = 0.5426 | x2 = 0.7423 | x2 = 0.8999
303.15 K | 14.02 | 11.47 | 9.923 | 9.547 | 9.78
323.15 K | 7.103 | 6.2 | 5.815 | 5.85 | 6.195

CC(O)CC(C)(C)O (stereo not given) + Cc1ccccc1
viscosity [mPa·s], 101 kPa
Conditions | x1 = 0.1346 | x1 = 0.1954 | x1 = 0.2938 | x1 = 0.3816 | x1 = 0.4929 | x1 = 0.5952 | x1 = 0.6969 | x1 = 0.7998 | x1 = 0.8958
308.15 K | 0.6243 | 0.7011 | 0.8906 | 1.182 | 1.708 | 2.106 | 3.293 | 5.905 | 9.863
318.15 K | 0.4797 | 0.5572 | 0.739 | 0.983 | 1.41 | 1.753 | 2.719 | 4.872 | 8.571

Cc1ccc(O)cc1 + Oc1ccccc1
298.15 K, 101 kPa
Conditions | viscosity [mPa·s]
x2 = 0.1598 | 13.27
x2 = 0.3191 | 12.18
x2 = 0.3851 | 11.75
x2 = 0.5218 | 10.99
x2 = 0.6385 | 10.42
x2 = 0.7587 | 9.835
x2 = 0.8783 | 9.463

O=S1(=O)CCCC1 + C1COCO1
viscosity [mPa·s], 101 kPa
Conditions | 303.15 K | 308.15 K | 313.15 K | 318.15 K | 323.15 K
x1 = 0.207 | 0.89 | 0.85 | 0.82 | 0.78 | 0.75
x1 = 0.43 | 1.49 | 1.39 | 1.24 | 1.21 | 1.17
x1 = 0.658 | 3.04 | 2.53 | 2.32 | 2.12 | 1.99

C[N+](C)(C)CCO.O=C1O[C@H]([C@@H](O)CO)C([O-])=C1O + O
viscosity [mPa·s], 100 kPa
Conditions | x1 = 0.001102 | x1 = 0.001323 | x1 = 0.001802 | x1 = 0.002629 | x1 = 0.00391 | x1 = 0.005531
293.15 K | 1.048 | 1.056 | 1.072 | 1.099 | 1.141 | 1.192
298.15 K | 0.933 | 0.94 | 0.956 | 0.98 | 1.018 | 1.065
303.15 K | 0.838 | 0.845 | 0.859 | 0.882 | 0.917 | 0.96
308.15 K | 0.758 | 0.764 | 0.778 | 0.799 | 0.832 | 0.872
313.15 K | 0.69 | 0.696 | 0.709 | 0.729 | 0.76 | 0.798

C=CCC[n+]1ccn(CCCC)c1.[Br-] + O
viscosity [mPa·s], 101.33 kPa
Conditions | x1 = 0.0008989 | x1 = 0.00189 | x1 = 0.003585 | x1 = 0.005487 | x1 = 0.007167 | x1 = 0.008848
293.15 K | 1.032 | 1.064 | 1.12 | 1.182 | 1.24 | 1.289
298.15 K | 0.915 | 0.943 | 0.988 | 1.046 | 1.094 | 1.137
303.15 K | 0.818 | 0.844 | 0.883 | 0.931 | 0.975 | 1.011
308.15 K | 0.736 | 0.758 | 0.795 | 0.837 | 0.874 | 0.902
313.15 K | 0.667 | 0.687 | 0.719 | 0.757 | 0.789 | 0.815

Cc1cccc(C)c1 + CC(C)CO
308.15 K, 101 kPa
Conditions | viscosity [mPa·s]
x2 = 0.066 | 0.543
x2 = 0.1299 | 0.555
x2 = 0.2218 | 0.581
x2 = 0.3376 | 0.635
x2 = 0.4463 | 0.714
x2 = 0.5733 | 0.862
x2 = 0.6333 | 0.954
x2 = 0.7251 | 1.146
x2 = 0.8223 | 1.479
x2 = 0.9039 | 1.794
x2 = 0.9623 | 2.218

Cc1cccc(C)c1 + ClC(Cl)Cl
298.15 K, 101 kPa
Conditions | viscosity [mPa·s]
x2 = 0.2254 | 0.5977
x2 = 0.4357 | 0.6026
x2 = 0.4615 | 0.6004
x2 = 0.5258 | 0.5981
x2 = 0.5786 | 0.5938
x2 = 0.6284 | 0.593
x2 = 0.6945 | 0.5876
x2 = 0.7272 | 0.5844

Cc1cccc(C)c1 + COCCO
viscosity [mPa·s], 101 kPa
Conditions | 298.15 K | 308.15 K
x2 = 0.0519 | 0.598 | 0.513
x2 = 0.1498 | 0.635 | 0.543
x2 = 0.2504 | 0.681 | 0.58
x2 = 0.3476 | 0.737 | 0.624
x2 = 0.452 | 0.81 | 0.68
x2 = 0.4991 | 0.848 | 0.709
x2 = 0.5538 | 0.897 | 0.746
x2 = 0.6476 | 0.996 | 0.819
x2 = 0.7504 | 1.127 | 0.915
x2 = 0.8491 | 1.282 | 1.026
x2 = 0.9558 | 1.491 | 1.172

O=S1(=O)CCCC1 + CCO
viscosity [mPa·s], 101 kPa
Conditions | 293.15 K | 298.15 K | 303.15 K | 308.15 K | 313.15 K | 323.15 K
x1 = 0.06211 | 1.21 | 1.103 | 1.006 | – | 0.845 | 0.714
x1 = 0.068 | – | – | 1.008 | 0.9247 | 0.8482 | –
x1 = 0.1147 | – | – | 1.063 | 0.976 | 0.8945 | –
x1 = 0.131 | 1.316 | 1.197 | 1.094 | – | 0.919 | 0.778
x1 = 0.2039 | 1.49 | 1.35 | 1.228 | – | 1.031 | 0.875
x1 = 0.2119 | – | – | 1.241 | 1.135 | 1.039 | –
x1 = 0.271 | – | – | 1.38 | 1.264 | 1.155 | –
x1 = 0.283 | 1.734 | 1.57 | 1.421 | – | 1.192 | 1.009
x1 = 0.3691 | 2.087 | 1.883 | 1.699 | – | 1.421 | 1.202
x1 = 0.374 | – | – | 1.696 | 1.546 | 1.417 | –
x1 = 0.4622 | 2.558 | 2.292 | 2.09 | – | 1.734 | 1.467
x1 = 0.4742 | – | – | 2.116 | 1.922 | 1.755 | –
x1 = 0.5688 | 3.306 | 2.96 | 2.668 | – | 2.207 | 1.857
x1 = 0.5738 | – | – | 2.691 | 2.436 | 2.216 | –
x1 = 0.6865 | 4.608 | 4.075 | 3.682 | – | 3.001 | 2.511
x1 = 0.7403 | – | – | 4.239 | 3.82 | 3.446 | –
x1 = 0.8141 | 6.959 | 6.153 | 5.503 | – | 4.423 | 3.632
x1 = 0.8574 | – | – | 6.141 | 5.47 | 4.899 | –
